Laboratory results from patent publication US20250339566A1, “INHIBITORS OF FIBROBLAST ACTIVATION PROTEIN” (UNIVERSITEIT ANTWERPEN, priority 2022, published 2025).
Where two headings read alike, the source gives them in different places.

Tests used:
Format in all cases: biochemical
[1] = molecular target: T1, Human recombinant PREP (Homo sapiens, UniProt P48147); test: PREP IC50 measurement (N-succinyl-Gly-Pro-AMC); conditions: for Selectivity index PREP: IC50(PREP)/IC50(FAP); for IC50: N-succinyl-Gly-Pro-AMC 250 μM, pH 7.4
T1 construct: made in house; host or cells: E. coli BL21(DE3)
T1 sequence (P48147 1-710): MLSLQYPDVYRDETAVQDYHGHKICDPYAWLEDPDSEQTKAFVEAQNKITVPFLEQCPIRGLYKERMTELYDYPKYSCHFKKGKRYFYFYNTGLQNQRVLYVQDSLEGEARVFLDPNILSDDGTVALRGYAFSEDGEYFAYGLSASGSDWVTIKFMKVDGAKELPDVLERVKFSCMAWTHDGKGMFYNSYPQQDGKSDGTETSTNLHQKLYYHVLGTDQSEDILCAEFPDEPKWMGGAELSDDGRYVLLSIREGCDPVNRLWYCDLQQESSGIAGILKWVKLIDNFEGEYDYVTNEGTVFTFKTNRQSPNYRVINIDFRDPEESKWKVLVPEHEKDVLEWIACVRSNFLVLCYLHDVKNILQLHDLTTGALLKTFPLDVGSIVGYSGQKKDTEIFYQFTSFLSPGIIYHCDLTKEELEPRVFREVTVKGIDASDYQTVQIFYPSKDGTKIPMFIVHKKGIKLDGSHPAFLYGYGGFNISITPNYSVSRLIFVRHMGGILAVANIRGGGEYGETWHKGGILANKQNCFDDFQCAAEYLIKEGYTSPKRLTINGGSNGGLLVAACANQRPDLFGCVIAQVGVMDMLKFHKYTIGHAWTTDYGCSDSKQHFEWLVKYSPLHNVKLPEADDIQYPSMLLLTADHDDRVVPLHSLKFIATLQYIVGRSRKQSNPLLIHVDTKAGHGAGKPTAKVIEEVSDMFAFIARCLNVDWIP
Source text: (§1) Used Enzymes in these Assays: • A gateway-entry clone for human FAP was purchased from Dharmacon (Accession number DQ891423) and the human secretion signal was replaced with the HoneyBee mellitin secretion signal. For transfection and expression of FAP in Sf9 insect cells the C-terminal BaculoDirect kit from LifeTechnologies was used. The enzyme was purified from the supernatant of the insect cells using immobilized Ni-chelating chromatography (GE healthcare, Diegem, Belgium), followed by anion-exchange chromatography using a 1 mL HiTrap Q and size exclusion chromatography using the Superdex 200 column (GE healthcare, Diegem, Belgium). • Human recombinant PREP was expressed in BL21(DE3) cells and purified using immobilized Co-chelating chromatography (GE healthcare), followed by anion-exchange chromatography on a 1 ml Mono Q column (GE healthcare). • DPP4 was purified from human seminal plasma. • Gateway-entry clones for human DPP8 and DPP9 were purchased from Dharmacon (Accession numbers DQ891733 and DQ892325 respectively). For transfection and expression of DPP8 and DPP9 in Sf9 insect cells the N-terminal BaculoDirect kit from LifeTechnologies was used. The enzymes were purified using immobilized Ni-chelating chromatography (GE healthcare, Diegem, Belgium), followed by anion-exchange chromatography using a 1 mL Mono Q (GE healthcare, Diegem, Belgium). • Recombinant human DPP2 was purchased from R&D.
(§2) Eight concentrations of inhibitors/probe were tested. The final DMSO concentration was kept constant during the experiment to exclude any effects. Inhibitors were pre-incubated with the enzyme for 15 minutes at 37° C., afterwards the substrate was added and the velocities of AMC release were measured kinetically at λex=380 nm, λem=465 nm for at least 10 minutes at 37° C. […] Eight concentrations of inhibitors were tested. The final DMSO concentration in kept constant during the experiment to exclude any effects. Inhibitors were pre-incubated with the enzyme for 15 minutes at 37° C., afterwards the substrate was added and the velocities of AMC release were measured kinetically at λex=380 nm, λem=465 nm for at least 10 minutes at 37° C. […] At least eight different inhibitor concentrations were used. The final DMSO concentration is kept constant during the experiment to exclude any effects. Inhibitors were pre-incubated with the enzyme for 15 minutes at 37° C., afterwards the substrate was added and the velocities of pNA release were measured kinetically at 405 nm for at least 10 minutes at 37° C. Measurements were done on the Infinite 200 (Tecan Group Ltd.) and the Magellan software was used to process the data. • For DPP2: Initial velocity measurements were carried out. Lys-Ala-pNA was used as the substrate at a concentration of 1 mM at pH 5.5 (100 mM NaAc, 10 mM EDTA, 14 μg/mL aprotinin). Inhibitors were tested at one concentration, 5 μM, being the final concentration in the well. Inhibitors were pre-incubated with the enzyme for 15 minutes at 37° C., afterwards the substrate was added and the velocities of pNA release were measured kinetically at 405 nm for at least 10 minutes at 37° C. Measurements were done on the Infinite 200 (Tecan Group Ltd.) and the Magellan software was used to process the data.

[2] = molecular target: T2, human DPP8 (Homo sapiens, UniProt Q6V1X1); test: DPP8 IC50 measurement (Ala-Pro-pNA); conditions: for IC50: read-out: DPP8 IC50; for Selectivity index DPP8: IC50(DPP8)/IC50(FAP)
T2 construct: made in house; host or cells: Sf9 insect cells (baculovirus)
T2 sequence (Q6V1X1 whole entry): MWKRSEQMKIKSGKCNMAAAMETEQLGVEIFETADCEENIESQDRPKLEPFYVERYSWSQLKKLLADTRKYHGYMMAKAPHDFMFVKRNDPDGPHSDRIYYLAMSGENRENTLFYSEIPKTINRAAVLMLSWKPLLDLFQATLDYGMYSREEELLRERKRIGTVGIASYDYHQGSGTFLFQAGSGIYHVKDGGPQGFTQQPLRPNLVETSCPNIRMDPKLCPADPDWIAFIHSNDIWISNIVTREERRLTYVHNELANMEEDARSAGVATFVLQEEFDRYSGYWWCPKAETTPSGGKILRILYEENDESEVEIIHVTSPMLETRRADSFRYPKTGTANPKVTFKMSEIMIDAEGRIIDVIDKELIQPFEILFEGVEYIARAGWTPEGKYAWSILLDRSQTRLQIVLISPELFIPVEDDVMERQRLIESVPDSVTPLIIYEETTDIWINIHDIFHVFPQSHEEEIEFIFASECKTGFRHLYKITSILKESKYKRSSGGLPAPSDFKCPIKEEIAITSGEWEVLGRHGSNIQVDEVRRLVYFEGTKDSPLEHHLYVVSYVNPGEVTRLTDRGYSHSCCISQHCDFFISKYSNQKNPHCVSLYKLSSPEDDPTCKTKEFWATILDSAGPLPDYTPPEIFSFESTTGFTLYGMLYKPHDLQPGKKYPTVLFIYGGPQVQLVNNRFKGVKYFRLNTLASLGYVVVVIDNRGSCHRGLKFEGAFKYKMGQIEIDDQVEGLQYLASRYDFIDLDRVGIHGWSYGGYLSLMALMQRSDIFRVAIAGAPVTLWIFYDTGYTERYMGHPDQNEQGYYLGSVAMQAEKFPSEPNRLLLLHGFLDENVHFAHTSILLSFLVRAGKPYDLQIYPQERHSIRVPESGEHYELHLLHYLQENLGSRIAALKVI
Source text: as §1, §2

[3] = molecular target: T3, human FAP (Homo sapiens, UniProt Q12884); test: FAP IC50 measurement (Z-Gly-Pro-AMC); conditions: Z-Gly-Pro-AMC 50 μM, pH 8, 15 min pre-incubation
T3 construct: the human secretion signal was replaced with the HoneyBee mellitin secretion signal; honeybee melittin secretion signal (replaces the native signal) (N); made in house; host or cells: Sf9 insect cells (baculovirus), purified from supernatant
T3 sequence (Q12884 26-760 limits assumed): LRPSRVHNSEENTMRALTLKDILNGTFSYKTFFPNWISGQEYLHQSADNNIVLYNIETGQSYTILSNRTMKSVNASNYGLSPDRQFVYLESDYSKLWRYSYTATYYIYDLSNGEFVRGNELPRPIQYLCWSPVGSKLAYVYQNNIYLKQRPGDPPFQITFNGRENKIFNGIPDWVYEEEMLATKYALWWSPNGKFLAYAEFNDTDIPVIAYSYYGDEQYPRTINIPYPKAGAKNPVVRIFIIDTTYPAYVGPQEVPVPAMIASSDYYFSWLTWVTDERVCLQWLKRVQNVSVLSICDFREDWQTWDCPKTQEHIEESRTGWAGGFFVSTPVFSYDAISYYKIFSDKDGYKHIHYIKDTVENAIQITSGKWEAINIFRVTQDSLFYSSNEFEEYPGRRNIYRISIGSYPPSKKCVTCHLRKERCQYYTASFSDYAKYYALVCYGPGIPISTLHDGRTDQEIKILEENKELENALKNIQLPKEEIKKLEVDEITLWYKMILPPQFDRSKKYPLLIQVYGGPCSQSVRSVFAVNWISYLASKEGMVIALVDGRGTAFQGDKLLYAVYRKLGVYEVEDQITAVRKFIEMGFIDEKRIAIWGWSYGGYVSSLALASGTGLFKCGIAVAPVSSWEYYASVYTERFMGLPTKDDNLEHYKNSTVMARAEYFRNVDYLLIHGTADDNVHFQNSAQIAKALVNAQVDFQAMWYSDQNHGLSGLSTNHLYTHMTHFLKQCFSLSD
Source text: as §1, §2

[4] = molecular target: T4, human DPP9 (Homo sapiens, UniProt Q86TI2); test: DPP9 IC50 measurement (Ala-Pro-pNA); conditions: for IC50: Ala-Pro-pNA 150 μM, pH 7.4; for Selectivity index DPP9: IC50(DPP9)/IC50(FAP)
T4 construct: made in house; host or cells: Sf9 insect cells (baculovirus)
T4 sequence (Q86TI2 whole entry): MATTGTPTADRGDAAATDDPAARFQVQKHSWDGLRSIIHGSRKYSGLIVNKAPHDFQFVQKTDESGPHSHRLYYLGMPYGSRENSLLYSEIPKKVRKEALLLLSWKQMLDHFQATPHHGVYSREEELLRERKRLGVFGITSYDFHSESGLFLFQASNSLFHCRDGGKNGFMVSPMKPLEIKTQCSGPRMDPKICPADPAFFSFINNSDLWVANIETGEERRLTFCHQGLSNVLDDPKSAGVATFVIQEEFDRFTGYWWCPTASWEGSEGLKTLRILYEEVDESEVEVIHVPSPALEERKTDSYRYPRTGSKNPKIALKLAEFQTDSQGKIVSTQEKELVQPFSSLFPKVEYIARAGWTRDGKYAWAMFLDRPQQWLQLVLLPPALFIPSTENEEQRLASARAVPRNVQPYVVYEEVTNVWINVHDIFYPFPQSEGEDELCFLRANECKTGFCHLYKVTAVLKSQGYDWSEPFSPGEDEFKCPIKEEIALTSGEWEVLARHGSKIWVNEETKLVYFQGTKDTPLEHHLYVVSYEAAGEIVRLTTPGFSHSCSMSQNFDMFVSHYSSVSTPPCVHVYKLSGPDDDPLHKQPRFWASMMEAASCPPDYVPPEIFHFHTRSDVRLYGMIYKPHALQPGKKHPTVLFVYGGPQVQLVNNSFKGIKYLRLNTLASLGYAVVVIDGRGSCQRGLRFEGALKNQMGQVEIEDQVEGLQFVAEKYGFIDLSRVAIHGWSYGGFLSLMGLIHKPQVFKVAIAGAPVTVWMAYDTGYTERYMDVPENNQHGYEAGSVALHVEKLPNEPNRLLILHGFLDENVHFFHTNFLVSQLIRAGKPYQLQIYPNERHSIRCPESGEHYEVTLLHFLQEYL
Source text: as §1, §2

[5] = molecular target: T5, DPP4 (Homo sapiens, UniProt P27487); test: DPP4 IC50 measurement (Ala-Pro-pNA); conditions: for IC50: Ala-Pro-pNA 25 μM, pH 7.4; for Selectivity index DPP4: IC50(DPP4)/IC50(FAP)
T5 construct: DPP4 was purified from human seminal plasma; from tissue; host or cells: human seminal plasma
T5 sequence (P27487 whole entry): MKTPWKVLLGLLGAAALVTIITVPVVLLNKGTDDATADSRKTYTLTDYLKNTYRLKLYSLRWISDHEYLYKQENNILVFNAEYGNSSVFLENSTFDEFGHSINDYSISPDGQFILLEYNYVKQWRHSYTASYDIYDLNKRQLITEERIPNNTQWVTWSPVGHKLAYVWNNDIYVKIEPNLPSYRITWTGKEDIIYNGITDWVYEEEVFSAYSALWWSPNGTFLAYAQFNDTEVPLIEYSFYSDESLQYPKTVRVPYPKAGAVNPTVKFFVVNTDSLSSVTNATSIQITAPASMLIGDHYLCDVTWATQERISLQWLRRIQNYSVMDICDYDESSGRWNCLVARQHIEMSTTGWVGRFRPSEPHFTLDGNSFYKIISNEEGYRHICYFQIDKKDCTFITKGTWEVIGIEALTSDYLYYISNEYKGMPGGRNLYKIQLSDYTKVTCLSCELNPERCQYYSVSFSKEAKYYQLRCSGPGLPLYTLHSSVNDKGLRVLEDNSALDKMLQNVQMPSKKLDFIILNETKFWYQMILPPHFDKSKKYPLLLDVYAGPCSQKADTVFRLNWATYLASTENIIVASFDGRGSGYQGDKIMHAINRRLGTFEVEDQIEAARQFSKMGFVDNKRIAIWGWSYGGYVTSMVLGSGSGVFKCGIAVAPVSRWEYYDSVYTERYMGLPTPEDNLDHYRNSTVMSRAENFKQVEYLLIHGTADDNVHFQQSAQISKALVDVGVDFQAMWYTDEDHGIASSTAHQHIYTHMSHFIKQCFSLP
Source text: as §1, §2

In the case of `C[N+](C)(C)CCOCCOCCOc1ccc2nccc(C(=O)NCC(=O)N3CC(F)(F)C[C@H]3C#N)c2c1.Cc1ccc(S(=O)(=O)[O-])cc1` [Compound 7, (S)-2-(2-(2-((4-((2-(2-cyano-4,4-difluoropyrrolidin-1-yl)-2-oxoethyl)carbamoyl)quinolin-6-yl)oxy)ethoxy)ethoxy)-N,N,N-trimethylethan-1-aminium 4-methylbenzenesulfonate], the “Selectivity index PREP” value [1] is reported as >36000, the IC50 [1] is reported as > 10000 nM and the IC50 ([2]; Ala-Pro-pNA 300 μM, pH 7.4) is reported as > 10000 nM. The “Selectivity index DPP8” value [2] was >36000, the IC50 [3] was 0.27 ± 0.02 nM and the IC50 [4] was > 10000 nM. The “Selectivity index DPP9” value [4] was >36000, the IC50 [5] was > 10000 nM and the “Selectivity index DPP4” value [5] was >36000.

`C[N+](C)(CF)CCOc1ccc2nccc(C(=O)NCC(=O)N3CC(F)(F)C[C@H]3C#N)c2c1.Cc1ccc(S(=O)(=O)[O-])cc1` [Compound 4b, (S)-2-((4-((2-(2-cyano-4,4-difluoropyrrolidin-1-yl)-2-oxoethyl)carbamoyl)quinoline-6-yl)oxy)-N-(fluoromethyl)-N,N-dimethylethan-1-aminium 4-methylbenzenesulfonate] was tested, and the “Selectivity index PREP” value ([1]; 4-methylbenzenesulfonate) was 4853, the “Selectivity index PREP” value ([1]; listed as UAMC-0005086, 4-methylbenzenesulfonate) was >4800 and the IC50 [1] was > 10000 nM. For the same compound, the IC50 ([2]; Ala-Pro-pNA 300 μM, pH 7.4) was > 10000 nM, the “Selectivity index DPP8” value [2] was >4800 and the IC50 [3] was 2.53 ± 0.13 nM. The IC50 [4] was > 10000 nM, the “Selectivity index DPP9” value [4] was >4800 and the IC50 [5] was > 10000 nM. The “Selectivity index DPP4” value [5] was >4800.

In the case of `C[N+](C)(CF)CCCOc1ccc2nccc(C(=O)NCC(=O)N3CC(F)(F)C[C@H]3C#N)c2c1.Cc1ccc(S(=O)(=O)[O-])cc1` [Compound 4a, (S)-3-((4-((2-(2-cyano-4,4-difluoropyrrolidin-1-yl)-2-oxoethyl)carbamoyl)quinoline-6-yl)oxy)-N-(fluoromethyl)-N,N-dimethylpropan-1-aminium benzenesulfonate], the “Selectivity index PREP” value [1] is reported as >31000, the IC50 [1] is reported as > 10000 nM and the IC50 ([2]; Ala-Pro-pNA 300 μM, pH 7.4) is reported as > 10000 nM. For the same compound, the “Selectivity index DPP8” value [2] was >31000, the IC50 [3] was 0.32 ± 0.02 nM and the IC50 [4] was > 10000 nM. The “Selectivity index DPP9” value [4] was >31000, the IC50 [5] was > 10000 nM and the “Selectivity index DPP4” value [5] was >31000.

In the case of `CC(C)(C)OC(=O)N1CC[N+](C)(CCCOc2ccc3nccc(C(=O)NCC(=O)N4CC(F)(F)C[C@H]4C#N)c3c2)CC1` [Compound 11, (S)-4-(tert-butoxycarbonyl)-1-(3-((4-((2-(2-cyano-4,4-difluoropyrrolidin-1-yl)-2-oxoethyl)carbamoyl)quinolin-6-yl)oxy)propyl)-1-methylpiperazin-1-ium iodide], the “Selectivity index PREP” value [1] is reported as >22000, the IC50 [1] is reported as > 10000 nM and the IC50 ([2]; Ala-Pro-pNA 300 μM, pH 7.4) is reported as > 1000 nM. For the same compound, the “Selectivity index DPP8” value [2] was >2200, the IC50 [3] was 0.44 ± 0.05 nM and the IC50 [4] was 620 ± 80 nM. For the same compound, the “Selectivity index DPP9” value [4] was >2200, the IC50 [5] was > 10000 nM and the “Selectivity index DPP4” value [5] was >22000.

In the case of `C[N+](C)(CF)CCOCCOc1ccc2nccc(C(=O)NCC(=O)N3CC(F)(F)C[C@H]3C#N)c2c1.Cc1ccc(S(=O)(=O)[O-])cc1` [Compound 9, (S)-2-(2-((4-((2-(2-cyano-4,4-difluoropyrrolidin-1-yl)-2-oxoethyl)carbamoyl)quinolin-6-yl)oxy)ethoxy)-N-(fluoromethyl)-N,N-dimethylethan-1-aminium 4-methylbenzenesulfonate], the “Selectivity index PREP” value [1] is reported as >10000, the IC50 [1] is reported as 5330 ± 710 nM and the “Selectivity index DPP8” value [2] is reported as >20000. The IC50 [3] was 0.49 ± 0.001 nM, the “Selectivity index DPP9” value [4] was >20000 and the “Selectivity index DPP4” value [5] was >20000.

For `N#C[C@@H]1CC(F)(F)CN1C(=O)CNC(=O)c1ccnc2ccccc12` [UAMC1110, reference compound], the IC50 ([2]; heading: DPP8 IC50) was > 10000 nM.

In the case of `C[N+]1(CCCOc2ccc3nccc(C(=O)NCC(=O)N4CC(F)(F)C[C@H]4C#N)c3c2)CCN(C(=O)c2ccc(B(O)O)cc2)CC1.Cc1ccc(S(=O)(=O)[O-])cc1` [Compound 12, (S)-4-(4-boronobenzoyl)-1-(3-((4-((2-(2-cyano-4,4-difluoropyrrolidin-1-yl)-2-oxoethyl)carbamoyl)quinolin-6-yl)oxy)propyl)-1-methylpiperazin-1-ium 4-methylbenzenesulfonate], the “Selectivity index PREP” value [1] is reported as >17000, the IC50 [1] is reported as > 10000 nM and the IC50 ([2]; Ala-Pro-pNA 300 μM, pH 7.4) is reported as > 1000 nM. The “Selectivity index DPP8” value [2] was >1700, the IC50 [3] was 0.57 ± 0.05 nM and the IC50 [4] was > 1000 nM. The “Selectivity index DPP9” value [4] was >1700, the IC50 [5] was > 1000 nM and the “Selectivity index DPP4” value [5] was >17000.

With `C[N+]1(CCCOc2ccc3nccc(C(=O)NCC(=O)N4CC(F)(F)C[C@H]4C#N)c3c2)CCN(C(=O)c2ccc(I)cc2)CC1` [Compound 13, (S)-1-(3-((4-((2-(2-cyano-4,4-difluoropyrrolidin-1-yl)-2-oxoethyl)carbamoyl)quinolin-6-yl)oxy)propyl)-4-(4-iodobenzoyl)-1-methylpiperazin-1-ium hexafluorophosphate(V)] the “Selectivity index PREP” value [1] was >22000, the IC50 [1] was > 10000 nM and the IC50 ([2]; Ala-Pro-pNA 300 μM, pH 7.4) was > 1000 nM. For the same compound, the “Selectivity index DPP8” value [2] was >2200, the IC50 [3] was 0.44 ± 0.1 nM and the IC50 [4] was 670 ± 30 nM. For the same compound, the “Selectivity index DPP9” value [4] was >2200, the IC50 [5] was > 10000 nM and the “Selectivity index DPP4” value [5] was >22000.
